In patent US20110112100A1, “Hepatitis C Virus Inhibitors” (priority 2009, published 2011):
Counter-ions that a name gives are not always drawn. Like-named read-outs stand apart in the source and are kept apart here.

What was measured:
1b (con1) replicon cells = experiment: HCV 1b replicon inhibitory activity (luciferase, Britelite Plus); assay type: cell-based, hepatitis C virus; details: read-out: IC50 value (95% Confidence Intervals) pM Replicon 1B assay
Protocol: (§1) Test compounds were solubilised to 4 mM in 100% DMSO. Dilutions were made to the desired starting concentration in 100% DMSO and then 1 in 3 dilutions made, again in 100% DMSO. 0.5 μl of each sample was added to 384-well assay plates. White Lumitrac (Greiner) plates were used for the 1a and 1b replicon assays and black, clear bottomed (Greiner) plates were used for the WST-1 cytotoxity assay.
1b (con1) replicon cells (pFK1389lucubineo/NS3-3′/ET/9B, licensed from Ralf Bartenschlager, University of Heidelberg) were resuspended to a concentration of 1.4×10^5 cells/ml by addition of pre-warmed medium (DMEM+10% FCS). 50 μl of this suspension was added to each well of a 384-well assay plate (Lumitrac, Greiner) already containing 0.5 μl of test compound.
All plates were covered with gas permeable seals and incubated at 37° C., 5% CO2 for 48 hours. After 48 hours, the plate was removed from the incubator and left to cool to room temperature for 15-30 mins. 35 ul of reconstituted Lyophilised Britelite Plus Substrate (PerkinElmer, 6016767) to medium was added to each well. Luminescence was read after 1 min but before 15 mins on an EnVision (Perkin Elmer) plate reader. The half maximal effective concentration (1050) values were calculated by constructing log concentration-response curves for each compound.

1a-H77 replicon cells = experiment: HCV 1a replicon inhibitory activity (Renilla luciferase); assay type: cell-based, hepatitis C virus; details: read-out: IC50 value (95% Confidence Intervals) pM Replicon 1A assay
Protocol: as §1
1a-H77 replicon cells (licensed from Apath LLC) were resuspended to a concentration of 1.4×10^5 cells/ml by addition of pre-warmed assay medium (Dulbecco's Modified Eagle's Medium (DMEM)+10% fetal calf serum (FCS)). 50 μl of this suspension was added to each well of a 384-well assay plate (Lumitrac, Greiner), already containing 0.5 μl of test compound.
All plates were covered with gas permeable seals and incubated at 37° C., 5% CO2 for 48 hours. After 48 hours, the assay plate was removed from the incubator and left to cool to room temperature for 15 to 30 mins. Medium was removed from the wells and 5 μl 1× lysis buffer (from Promega's Renilla Luciferase assay kit, E2820) was added to each well. The plate was incubated at room temperature for 15 mins then 15 μl 1×Assay Substrate (from the same kit) was added to each well. Luminescence was read immediately using an EnVision (Perkin Elmer) plate reader. The half maximal effective concentration (1050) values were calculated by constructing log concentration-response curves for each compound.

[1] = Hepatitis C virus, geometric mean, 95% confidence intervals in parentheses, 48 hours, medium with 10% FCS
[2] = geometric mean, 95% confidence intervals in parentheses, 48 hours, medium with 10% FCS

SMILES | IC50 (1b (con1) replicon cells; Hepatitis C virus, 48 h) [pM] | IC50 (1a-H77 replicon cells; Hepatitis C virus, 48 h) [pM] | further results
COC(=O)N[C@H](C(=O)N1CCC[C@H]1c1nc(-c2ccc(-c3cnc4cc(-c5cnc([C@@H]6CCCN6C(=O)[C@H](CCC(N)=O)NC(C)=O)[nH]5)ccc4n3)cc2)c[nH]1)C(C)C [Example 34, Methyl {(2S)-1-[(2S)-2-{4-[4-(6-[2-[(2S)-1-(N^2-acetyl-L-glutaminyl)pyrrolidin-2-yl]-1H-imidazol-5-yl}quinoxalin-2-yl)phenyl]-1H-imidazol-2-yl}pyrrolidin-1-yl]-3-methyl-1-oxobutan-2-yl}carbamate trifluoroacetic acid salt] | 1430 | 5930 | –
CC[C@H](NC(C)=O)C(=O)N1CCC[C@H]1c1ncc(-c2ccc3nc(-c4ccc(-c5c[nH]c([C@@H]6CCCN6C(=O)[C@@H](NC(=O)OC)C(C)C)n5)cc4)cnc3c2)[nH]1 [Example 39, Methyl {(2S)-1-[(2S)-2-(4-{4-[6-(2-{(2S)-1-[(2S)-2-(acetylamino)butanoyl]pyrrolidin-2-yl}-1H-imidazol-5-yl)quinoxalin-2-yl]phenyl}-1H-imidazol-2-yl)pyrrolidin-1-yl]-3-methyl-1-oxobutan-2-yl}carbamate trifluoroacetic acid salt] | 48.1 | 1240 | –
COC(=O)N[C@H](C(=O)N1CCC[C@H]1c1ncc(-c2ccc(-c3nc(O)c4cc(-c5cnc([C@@H]6CCCN6C(=O)[C@@H](NC(=O)OC)C(C)C)[nH]5)ccc4n3)cc2)[nH]1)C(C)C [Example 15, Methyl {(2S)-1-[(2S)-2-{5-[4-(4-hydroxy-6-{2-[(2S)-1-{(2S)-2-[(methoxycarbonyl)amino]-3-methylbutanoyl}pyrrolidin-2-yl]-1H-imidazol-5-yl}quinazolin-2-yl)phenyl]-1H-imidazol-2-yl}pyrrolidin-1-yl]-3-methyl-1-oxobutan-2-yl}carbamate] | – | – | IC50 (1b (con1) replicon cells; [1]): 102 pM; IC50 (1a-H77 replicon cells; [1]): 194 pM
COC(=O)N[C@H](C(=O)N1CCC[C@H]1c1nc(-c2ccc(-c3cnc4cc(-c5cnc([C@@H]6CCCN6C(=O)[C@H](NC(=O)OC)C(C)C)[nH]5)ccc4n3)cc2)c[nH]1)C(C)C [Example 61, Methyl {(2S)-1-[(2S)-2-{4-[4-(6-{2-[(2S)-1-{(2R)-2-[(methoxycarbonyl)amino]-3-methylbutanoyl}pyrrolidin-2-yl]-1H-imidazol-5-yl}quinoxalin-2-yl)phenyl]-1H-imidazol-2-yl}pyrrolidin-1-yl]-3-methyl-1-oxobutan-2-yl}carbamate trifluoroacetic acid salt] | 83.5 | 6400 | –
COC(=O)N[C@H](C(=O)N1CCC[C@H]1c1nc(-c2cnc(-c3cc4ccc(-c5cnc([C@@H]6CCCN6C(=O)[C@@H](NC(=O)OC)C(C)C)[nH]5)cc4cn3)nc2)c[nH]1)C(C)C [Example 22, Methyl {(2S)-1-[(2S)-2-{4-[2-(7-{2-[(2S)-1-{(2S)-2-[(methoxycarbonyl)amino]-3-methylbutanoyl}pyrrolidin-2-yl]-1H-imidazol-5-yl}isoquinolin-3-yl)pyrimidin-5-yl]-1H-imidazol-2-yl}pyrrolidin-1-yl]-3-methyl-1-oxobutan-2-yl}carbamate] | – | – | IC50 (1b (con1) replicon cells; [1]): 152 pM; IC50 (1a-H77 replicon cells; [1]): 2190 pM
COC(=O)N[C@H](C(=O)N1CCC[C@H]1c1nc(-c2ccc(-c3cnc4cc(-c5cnc([C@@H]6CCCN6C(=O)CNC(C)=O)[nH]5)ccc4n3)cc2)c[nH]1)C(C)C [Example 35, Methyl {(2S)-1-[(2S)-2-{4-[4-(6-{2-[(2S)-1-(N-acetylglycyl)pyrrolidin-2-yl]-1H-imidazol-5-yl}quinoxalin-2-yl)phenyl]-1H-imidazol-2-yl}pyrrolidin-1-yl]-3-methyl-1-oxobutan-2-yl}carbamate trifluoroacetic acid salt] | 254 | 2300 | –
COC(=O)N[C@H](C(=O)N1CCC[C@H]1c1nc(-c2ccc(-c3cnc4cc(-c5cnc([C@@H]6CCCN6C(=O)[C@@H](C)NC(=O)OC)[nH]5)ccc4n3)cc2)c[nH]1)C(C)C [Example 53, Methyl {(2S)-1-[(2S)-2-(4-{4-[6-(2-{(2S)-1-[N-(methoxycarbonyl)-D-alanyl]pyrrolidin-2-yl}-1H-imidazol-5-yl)quinoxalin-2-yl]phenyl}-1H-imidazol-2-yl)pyrrolidin-1-yl]-3-methyl-1-oxobutan-2-yl} carbamate trifluoroacetic acid salt] | – | – | IC50 (1b (con1) replicon cells; [2]): 21.1 pM; IC50 (1a-H77 replicon cells; [2]): 646 pM
COC(=O)N[C@H](C(=O)N1CCC[C@H]1c1nc(-c2ccc(-c3cnc4cc(-c5cnc([C@@H]6CCCN6C(=O)CNC(=O)CN6C(=O)CCc7ccccc76)[nH]5)ccc4n3)cc2)c[nH]1)C(C)C [Example 45, Methyl {(2S)-3-methyl-1-oxo-1-[(2S)-2-{4-[4-(6-[2-[(2S)-1-{N-[(2-oxo-3,4-dihydroquinolin-1(2H)-yl)acetyl]glycyl}pyrrolidin-2-yl]-1H-imidazol-5-yl}quinoxalin-2-yl)phenyl]-1H-imidazol-2-yl}pyrrolidin-1-yl]butan-2-yl}carbamate trifluoroacetic acid salt] | 507 | 20000 | –
COC(=O)N[C@H](C(=O)N1CCC[C@H]1c1nc(-c2ccc(-c3cnc4cc(-c5cnc([C@@H]6CCCN6C(=O)C6(NC(=O)OC)CCC6)[nH]5)ccc4n3)cc2)c[nH]1)C(C)C [Example 50, Methyl {(2S)-1-[(2S)-2-{4-[4-(6-{2-[(2S)-1-({1-[(methoxycarbonyl)amino]cyclobutyl}carbonyl)pyrrolidin-2-yl]-1H-imidazol-5-yl}quinoxalin-2-yl)phenyl]-1H-imidazol-2-yl}pyrrolidin-1-yl]-3-methyl-1-oxobutan-2-yl}carbamate trifluoroacetic acid salt] | 77.2 | 356 | –
COC(=O)N[C@@H](CO)C(=O)N1CCC[C@H]1c1ncc(-c2ccc3nc(-c4ccc(-c5c[nH]c([C@@H]6CCCN6C(=O)[C@@H](NC(=O)OC)C(C)C)n5)cc4)cnc3c2)[nH]1 [Example 64, Methyl {(2S)-1-[(2S)-2-{4-[4-(6-{2-[(2S)-1-{(2S)-3-hydroxy-2-[(methoxycarbonyl)amino]propanoyl}pyrrolidin-2-yl]-1H-imidazol-5-yl}quinoxalin-2-yl)phenyl]-1H-imidazol-2-yl}pyrrolidin-1-yl]-3-methyl-1-oxobutan-2-yl}carbamate trifluoroacetic acid salt] | 42 | 44.9 | –
COC(=O)N[C@H](C(=O)N1CCC[C@H]1c1nc(-c2ccc(-c3cnc4cc(-c5cnc([C@@H]6CCCN6C(=O)CNC(=O)CNC(C)=O)[nH]5)ccc4n3)cc2)c[nH]1)C(C)C [Example 36, Methyl {(2S)-1-[(2S)-2-{4-[4-(6-{2-[(2S)-1-(N-acetylglycylglycyl)pyrrolidin-2-yl]-1H-imidazol-5-yl}quinoxalin-2-yl)phenyl]-1H-imidazol-2-yl}pyrrolidin-1-yl]-3-methyl-1-oxobutan-2-yl}carbamate trifluoroacetic acid salt] | 1740 | 29800 | –
COC(=O)NCC(=O)N1CCC[C@H]1c1ncc(-c2ccc3nc(-c4ccc(-c5c[nH]c([C@@H]6CCCN6C(=O)[C@@H](NC(=O)OC)C(C)C)n5)cc4)cnc3c2)[nH]1 [Example 65, Methyl {2-[(2S)-2-[5-[2-(4-{2-[(2S)-1-{(2S)-2-[(methoxycarbonyl)amino]-3-methylbutanoyl}pyrrolidin-2-yl]-1H-imidazol-4-yl}phenyl)quinoxalin-6-yl]-1H-imidazol-2-yl}pyrrolidin-1-yl]-2-oxoethyl)carbamate trifluoroacetic acid salt] | 54.5 | 700 | –
COC(=O)N[C@@H](C)C(=O)N1CCC[C@H]1c1ncc(-c2ccc3nc(-c4ccc(-c5c[nH]c([C@@H]6CCCN6C(=O)[C@@H](NC(=O)OC)C(C)C)n5)cc4)cnc3c2)[nH]1 [Example 57, Methyl {(2S)-1-[(2S)-2-(4-{4-[6-(2-{(2S)-1-[N-(methoxycarbonyl)-L-alanyl]pyrrolidin-2-yl}-1H-imidazol-5-yl)quinoxalin-2-yl]phenyl}-1H-imidazol-2-yl)pyrrolidin-1-yl]-3-methyl-1-oxobutan-2-yl} carbamate trifluoroacetic acid salt] | – | – | IC50 (1b (con1) replicon cells; [2]): 21.9 pM; IC50 (1a-H77 replicon cells; [2]): 21.8 pM
